Measurements published in patent US10323019B2, “Pyrazolylaminobenzimidazole derivatives as JAK inhibitors” (Eli Lilly and Company, priority 2016, dated 2019).

Columns and labels:
JAK1 [1] = target: T1, JAK1 (Homo sapiens (Human), UniProt P23458); test: JAK LanthaScreen Kinase Assay (TR-FRET), JAK1 in vitro enzyme assay; assay type: biochemical; conditions: 20.0 μM ATP
Protocol: (§1) The JAK LanthaScreen™ Kinase Assay (Invitrogen) is used to determine the ability of test compounds to inhibit JAK1, JAK2, and JAK3 kinase activity. These are TR-FRET assay formats that use long-lifetime terbium labeled antibody as the donor species and GFP-STAT1 as the acceptor species. Use the TR-FRET ratio to monitor JAK kinase activity where an increase in phosphorylation of the GFP-STAT1 results in an increase in the TR-FRET ratio. Perform the kinase reaction using a 12.5 μl reaction volume in shallow black 384-well Proxiplate®. Add reagents to obtain final reaction conditions of […], 1.76 mM Triton X-100, ATP (20.0 μM for JAK1 and JAK3 or 5 μM for JAK2) enzyme assays, 10.0 mM MgCl2, 1 mM EGTA and 0.01% Brij-35, […] GFP-STAT1, 14 nM JAK1 enzyme for JAK1, 1.0 nM for JAK2 or 2.5 nM for JAK3 enzyme assays, and 4% DMSO and serial dilutions of test compound (diluted 1:3 from 20,000 to 1 nM). Following ATP/GFP-STAT1 addition, centrifuge the assay plates for 1 minute at 1000 revolutions per minute (RPM). Allow the plates to incubate at RT for 60 minutes and then add 12.5 μl of a stopping buffer containing 20 mM EDTA, 2 nM Terbium-anti-phosphorylated Signal Transducers and Activators of Transcription [phosphorylation Tyrosine 701 amino acid] […] Use ACTIVITYBASE® 4.0 to fit the percent inhibition and ten-point compound concentration data to a four-parameter logistic equation.

JAK2 = JAK2 (Homo sapiens (Human), UniProt O60674); test: JAK LanthaScreen Kinase Assay (TR-FRET), JAK2 in vitro enzyme assay; assay type: biochemical; conditions: 5 μM ATP
Protocol: as §1

JAK3 = JAK3 (Homo sapiens (Human), UniProt P52333); test: JAK LanthaScreen Kinase Assay (TR-FRET), JAK3 in vitro enzyme assay; assay type: biochemical; conditions: 20.0 μM ATP
Protocol: as §1

JAK1 [2] = target: T1, JAK1; test: AlphaScreen SureFire p-STAT3-(p-Tyr705)-IL6-TF-1-JAK1 cell-based assay; conditions: TF-1 cells, IL6 30 ng/mL, pSTAT3
Protocol: AlphaScreen SureFire Protocol p-STAT3-(p-Tyr705)-IL6-TF-1-JAK1 Cell-Based Assay
The JAK1 cell based assay described below is used to determine the JAK1 cellular potency of test compounds.
Cell preparation: Starve TF-1 cells in DMEM medium with 0.5% […] and 1× Pen/Strep at 37° C. Plate 100K cells per well in BD 96 well black plates with clear bottoms. Maintain the plates at RT for 30-60 minutes before incubating overnight at 37° C., and 5% CO2. Count cells using Vi-Cell counter, using a cell suspension at […] and plated 100 μL/well in […] Biocoat plates (Catalog #354640).
Test compound preparation and treatment: Prepare compounds at 1:3 serial dilutions in DMSO and further dilute into the medium. Test compounds in a range of 10 point concentrations from 20,000 to 1 nM. Add diluted compound to corresponding cell plates. Incubate the plates at 37° C. for 20 min. Add IL6 solution at the final concentration 30 ng/mL to corresponding cell plates and continue to incubate at 37° C. for 30 min. Remove media and add 50 μL 1× lysis buffer to each well.
pSTAT3 detection: Perform the following steps sequentially: make acceptor mix (activation buffer/reaction buffer/acceptor beads); transfer 4 μL lysate from 96 well plates to 384 well-Proxiplates; add 5 μL acceptor mix to 384 proxiplate plate(s) and seal plates with aluminum seal; shake 1-2 minutes on plate shaker; incubate plate at RT for 2 hr with gentle shaking; make donor mix (donor beads in dilution buffer); add 2 μL donor mix to assay plates; seal plates with aluminum seal; shake 1-2 minutes on plate shaker; incubate at RT for 2 hr with gentle shaking; read plate with Envision; protocol AlphaScreen Surefire 384.

T1 sequence (P23458 whole entry): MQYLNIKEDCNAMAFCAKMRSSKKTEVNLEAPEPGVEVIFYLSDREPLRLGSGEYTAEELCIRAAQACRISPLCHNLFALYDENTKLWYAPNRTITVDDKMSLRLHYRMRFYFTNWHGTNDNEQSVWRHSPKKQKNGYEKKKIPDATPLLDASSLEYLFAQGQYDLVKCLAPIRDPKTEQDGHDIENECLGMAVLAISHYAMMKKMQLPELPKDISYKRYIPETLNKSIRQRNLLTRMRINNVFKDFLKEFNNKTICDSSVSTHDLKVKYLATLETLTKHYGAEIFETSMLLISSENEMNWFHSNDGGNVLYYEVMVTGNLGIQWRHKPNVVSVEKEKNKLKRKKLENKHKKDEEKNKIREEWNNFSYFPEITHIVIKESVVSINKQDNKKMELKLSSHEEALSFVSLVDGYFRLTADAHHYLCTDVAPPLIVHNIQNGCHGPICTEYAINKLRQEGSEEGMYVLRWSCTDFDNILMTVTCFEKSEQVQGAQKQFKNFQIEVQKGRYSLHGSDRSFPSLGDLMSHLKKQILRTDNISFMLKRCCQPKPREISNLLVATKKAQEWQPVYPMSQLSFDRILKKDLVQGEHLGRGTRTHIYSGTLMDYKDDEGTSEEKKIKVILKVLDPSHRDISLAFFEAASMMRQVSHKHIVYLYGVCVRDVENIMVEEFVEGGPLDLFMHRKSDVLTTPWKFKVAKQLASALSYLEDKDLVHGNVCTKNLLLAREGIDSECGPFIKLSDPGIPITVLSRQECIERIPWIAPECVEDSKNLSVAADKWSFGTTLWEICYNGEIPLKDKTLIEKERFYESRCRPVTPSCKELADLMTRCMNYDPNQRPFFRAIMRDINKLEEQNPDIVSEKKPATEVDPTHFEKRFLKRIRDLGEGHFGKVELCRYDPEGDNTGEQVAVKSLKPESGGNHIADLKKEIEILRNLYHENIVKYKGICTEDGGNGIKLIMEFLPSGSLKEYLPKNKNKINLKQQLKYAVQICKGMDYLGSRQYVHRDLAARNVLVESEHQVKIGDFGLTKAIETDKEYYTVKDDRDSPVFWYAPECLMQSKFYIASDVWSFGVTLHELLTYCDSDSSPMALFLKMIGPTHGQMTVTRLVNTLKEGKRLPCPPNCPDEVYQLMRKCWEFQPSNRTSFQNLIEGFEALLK
JAK2, sequence (O60674 whole entry): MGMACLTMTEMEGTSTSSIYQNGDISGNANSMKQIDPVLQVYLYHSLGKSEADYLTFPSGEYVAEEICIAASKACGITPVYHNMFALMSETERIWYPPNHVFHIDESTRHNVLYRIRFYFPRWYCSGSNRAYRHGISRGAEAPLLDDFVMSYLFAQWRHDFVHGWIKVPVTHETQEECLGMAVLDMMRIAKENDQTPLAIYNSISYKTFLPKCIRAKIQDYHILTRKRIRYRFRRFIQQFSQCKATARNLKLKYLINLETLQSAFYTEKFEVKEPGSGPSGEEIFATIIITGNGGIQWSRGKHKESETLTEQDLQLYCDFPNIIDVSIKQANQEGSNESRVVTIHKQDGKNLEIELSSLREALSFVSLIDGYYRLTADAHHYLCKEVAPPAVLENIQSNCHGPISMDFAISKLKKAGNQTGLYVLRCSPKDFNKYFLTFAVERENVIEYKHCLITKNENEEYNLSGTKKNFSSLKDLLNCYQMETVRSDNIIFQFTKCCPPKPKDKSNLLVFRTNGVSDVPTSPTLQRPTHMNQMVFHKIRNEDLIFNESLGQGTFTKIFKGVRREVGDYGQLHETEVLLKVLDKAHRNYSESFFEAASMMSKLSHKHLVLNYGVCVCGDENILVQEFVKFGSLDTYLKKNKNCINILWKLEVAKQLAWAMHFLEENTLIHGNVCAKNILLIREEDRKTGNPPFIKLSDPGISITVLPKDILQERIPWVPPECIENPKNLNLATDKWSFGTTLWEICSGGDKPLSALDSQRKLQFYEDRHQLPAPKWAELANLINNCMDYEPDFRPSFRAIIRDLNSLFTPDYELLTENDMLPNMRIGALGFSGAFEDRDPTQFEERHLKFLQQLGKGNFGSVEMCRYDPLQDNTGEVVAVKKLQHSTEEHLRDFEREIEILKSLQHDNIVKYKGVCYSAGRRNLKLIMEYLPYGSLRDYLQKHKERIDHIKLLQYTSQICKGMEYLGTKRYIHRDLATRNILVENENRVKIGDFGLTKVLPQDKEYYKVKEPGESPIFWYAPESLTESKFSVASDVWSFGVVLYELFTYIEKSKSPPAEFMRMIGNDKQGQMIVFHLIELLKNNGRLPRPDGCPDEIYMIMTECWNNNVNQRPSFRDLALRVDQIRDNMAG
JAK3, sequence (P52333 whole entry): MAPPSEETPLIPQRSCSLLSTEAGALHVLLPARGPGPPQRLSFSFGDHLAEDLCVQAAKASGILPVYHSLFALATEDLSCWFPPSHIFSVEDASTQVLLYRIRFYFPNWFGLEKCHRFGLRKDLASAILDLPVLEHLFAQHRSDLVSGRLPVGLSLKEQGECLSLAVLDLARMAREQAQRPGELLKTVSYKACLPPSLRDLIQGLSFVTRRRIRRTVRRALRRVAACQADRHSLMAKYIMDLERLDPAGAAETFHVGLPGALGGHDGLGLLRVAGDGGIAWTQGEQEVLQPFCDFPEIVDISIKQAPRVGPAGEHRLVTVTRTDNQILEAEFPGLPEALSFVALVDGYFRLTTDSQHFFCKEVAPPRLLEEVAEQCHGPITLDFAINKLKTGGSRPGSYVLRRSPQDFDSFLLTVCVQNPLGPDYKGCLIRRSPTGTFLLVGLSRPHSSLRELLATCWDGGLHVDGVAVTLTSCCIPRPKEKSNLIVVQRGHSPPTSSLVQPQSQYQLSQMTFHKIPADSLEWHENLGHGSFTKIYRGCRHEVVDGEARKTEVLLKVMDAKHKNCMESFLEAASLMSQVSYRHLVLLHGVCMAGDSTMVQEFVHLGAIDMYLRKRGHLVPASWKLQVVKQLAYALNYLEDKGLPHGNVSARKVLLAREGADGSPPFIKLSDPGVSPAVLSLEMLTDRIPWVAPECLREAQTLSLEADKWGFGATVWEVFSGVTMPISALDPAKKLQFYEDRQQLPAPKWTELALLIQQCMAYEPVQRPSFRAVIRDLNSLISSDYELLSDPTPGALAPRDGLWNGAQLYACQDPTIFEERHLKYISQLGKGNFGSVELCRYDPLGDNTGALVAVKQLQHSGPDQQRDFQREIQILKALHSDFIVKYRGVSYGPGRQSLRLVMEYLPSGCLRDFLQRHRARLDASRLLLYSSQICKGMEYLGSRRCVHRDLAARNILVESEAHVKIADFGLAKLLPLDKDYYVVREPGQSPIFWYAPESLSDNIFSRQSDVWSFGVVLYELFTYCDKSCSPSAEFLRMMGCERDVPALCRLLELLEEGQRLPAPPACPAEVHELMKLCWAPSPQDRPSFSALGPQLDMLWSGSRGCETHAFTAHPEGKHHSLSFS

Compound	IC50 (JAK1 [1]) [nM]	IC50 (JAK2) [nM]	IC50 (JAK3) [nM]	IC50 (JAK1 [2]) [nM]
COCCCn1nc(Nc2cc(O[C@H]3CC[C@@H](NC[C@@H](O)C(F)(F)F)CC3)cc3c2ncn3C)cc1C [Example 1, (2R)-1,1,1-Trifluoro-3-({cis-4-[(4-{[1-(3-methoxypropyl)-5-methyl-1H-pyrazol-3-yl]amino}-1-methyl-1H-benzimidazol-6-yl)oxy]cyclohexyl}amino)propan-2-ol]	3.25 ± 0.99	1200 ± 550	3720 ± 1300	0.154 ± 0.023
COCCn1nc(Nc2cc(O[C@H]3CC[C@@H](NC[C@@H](O)C(F)(F)F)CC3)cc3c2ncn3C)cc1C [Example 2, (2R)-1,1,1-Trifluoro-3-({cis-4-[(4-{[1-(2-methoxyethyl)-5-methyl-1H-pyrazol-3-yl]amino}-1-methyl-1H-benzimidazol-6-yl)oxy]cyclohexyl}amino)propan-2-ol]	–	–	–	0.275 ± 0.102
